Consider two compounds from ChEMBL document CHEMBL3856199, “Melanoma-targeted delivery system (part 2): Synthesis, radioiodination and biological evaluation in B16F0 bearing mice” (Eur J Med Chem, 2016).

A short description of data set [1]: Drug uptake in abdomen of C57BL/6J mouse implanted with mouse B16F0 cells at 3.7 MBq, iv measured at 1 hr post injection by scintigraphic imaging analysis. Type of data set: ADME, organism-based. Conditions: in vivo; call rule not given here.
The nature of data set [2]: Drug uptake in tumor of C57BL/6J mouse implanted with mouse B16F0 cells at 3.7 MBq, iv measured at 1 hr post injection by gamma counting analysis. Format: ADME, organism-based, Neoplasm. Conditions: in vivo.
Data set [3] in a line: Drug uptake in liver of C57BL/6J mouse implanted with mouse B16F0 cells at 3.7 MBq, iv measured at 24 hrs post injection by gamma counting analysis. Type of data set: ADME, organism-based. Conditions: in vivo.
Data set [4] in a line: Drug uptake in liver of C57BL/6J mouse implanted with mouse B16F0 cells at 3.7 MBq, iv measured at 72 hrs post injection by gamma counting analysis. Type of data set: ADME, organism-based. Conditions: in vivo.
A short description of data set [5]: Drug uptake in kidney of C57BL/6J mouse implanted with mouse B16F0 cells at 3.7 MBq, iv measured at 1 hr post injection by gamma counting analysis. Format: ADME, organism-based. Conditions: in vivo.
Data set [6] in a line: Drug uptake in stomach of C57BL/6J mouse implanted with mouse B16F0 cells at 3.7 MBq, iv measured at 3 hrs post injection by gamma counting analysis. Type of data set: ADME, organism-based. To be noted: in vivo.
Data set [7] is described as follows: Drug uptake in stomach of C57BL/6J mouse implanted with mouse B16F0 cells at 3.7 MBq, iv measured at 72 hrs post injection by gamma counting analysis. Format: ADME, organism-based. To be noted: in vivo.
Data set [8] is described as follows: Drug uptake in intestine of C57BL/6J mouse implanted with mouse B16F0 cells at 3.7 MBq, iv measured at 3 hrs post injection by gamma counting analysis. Type of data set: ADME, organism-based. To be noted: in vivo.
Data set [9] can be described thus: Drug uptake in intestine of C57BL/6J mouse implanted with mouse B16F0 cells at 3.7 MBq, iv measured at 24 hrs post injection by gamma counting analysis. Type of data set: ADME, organism-based. Conditions: in vivo.
A short description of data set [10]: Drug uptake in thyroid/submaxillary glands of C57BL/6J mouse implanted with mouse B16F0 cells at 3.7 MBq, iv measured at 1 hr post injection by gamma counting analysis. Type of data set: ADME, organism-based, Submaxillary gland/Thyroid. To be noted: in vivo.
Data set [11] is described as follows: Drug uptake in thyroid/submaxillary glands of C57BL/6J mouse implanted with mouse B16F0 cells at 3.7 MBq, iv measured at 6 hrs post injection by gamma counting analysis. Type of data set: ADME, organism-based, Submaxillary gland/Thyroid. To be noted: in vivo.
Data set [12] is described as follows: Drug uptake in thyroid/submaxillary glands of C57BL/6J mouse implanted with mouse B16F0 cells at 3.7 MBq, iv measured at 24 hrs post injection by gamma counting analysis. Format: ADME, organism-based, Submaxillary gland/Thyroid. To be noted: in vivo.
Data set [13] can be described thus: Drug uptake in eyes of C57BL/6J mouse implanted with mouse B16F0 cells at 3.7 MBq, iv measured at 72 hrs post injection by gamma counting analysis. Type of data set: ADME, organism-based, Eye. To be noted: in vivo.
Data set [14] in a line: Drug uptake in blood of C57BL/6J mouse implanted with mouse B16F0 cells at 3.7 MBq, iv measured at 1 hr post injection by gamma counting analysis. Conditions: in vivo. Format: ADME, organism-based.
Data set [15] can be described thus: Drug uptake in blood of C57BL/6J mouse implanted with mouse B16F0 cells at 3.7 MBq, iv measured at 3 hrs post injection by gamma counting analysis. Type of data set: ADME, organism-based. To be noted: in vivo.
The nature of data set [16]: Drug uptake in muscles of C57BL/6J mouse implanted with mouse B16F0 cells at 3.7 MBq, iv measured at 1 hr post injection by gamma counting analysis. To be noted: in vivo. Type of data set: ADME, organism-based, Muscle tissue.
Data set [17] can be described thus: Drug uptake in muscles of C57BL/6J mouse implanted with mouse B16F0 cells at 3.7 MBq, iv measured at 24 hrs post injection by gamma counting analysis. Format: ADME, organism-based, Muscle tissue. Conditions: in vivo.
The nature of data set [18]: Drug uptake in muscles of C57BL/6J mouse implanted with mouse B16F0 cells at 3.7 MBq, iv measured at 72 hrs post injection by gamma counting analysis. Type of data set: ADME, organism-based, Muscle tissue. To be noted: in vivo.
A short description of data set [19]: Ratio of drug uptake in tumor to blood in C57BL/6J mouse implanted with mouse B16F0 cells at 3.7 MBq, iv measured at 1 hr post injection. Type of data set: ADME, organism-based.
A short description of data set [20]: Ratio of drug uptake in tumor to blood in C57BL/6J mouse implanted with mouse B16F0 cells at 3.7 MBq, iv measured at 6 hrs post injection. Type of data set: ADME, organism-based. To be noted: tumour.
A short description of data set [21]: Ratio of drug uptake in tumor to muscle in C57BL/6J mouse implanted with mouse B16F0 cells at 3.7 MBq, iv measured at 1 hr post injection. Type of data set: ADME, organism-based. To be noted: in vivo.
The nature of data set [22]: Ratio of drug uptake in tumor to muscle in C57BL/6J mouse implanted with mouse B16F0 cells at 3.7 MBq, iv measured at 72 hrs post injection. To be noted: in vivo. Type of data set: ADME, organism-based.
Data set [23] in a line: Drug level in urine of C57BL/6J mouse implanted with mouse B16F0 cells treated with [125I]IUdR-SS-MTP at 3.7 MBq, iv measured at 15 to 60 mins post injection by RP-HPLC analysis. To be noted: in vivo. Format: ADME, organism-based.
Data set [24] is described as follows: Drug level in blood of C57BL/6J mouse implanted with mouse B16F0 cells treated with [125I]IUdR-SS-MTP at 3.7 MBq, iv measured at 15 to 60 mins post injection by RP-HPLC analysis. Type of data set: ADME, organism-based. Conditions: in vivo.
A short description of data set [25]: Drug level in tumor of C57BL/6J mouse implanted with mouse B16F0 cells treated with [125I]IUdR-SS-MTP at 3.7 MBq, iv measured at 15 to 60 mins post injection by RP-HPLC analysis. Type of data set: ADME, organism-based, Neoplasm. Conditions: in vivo.

Regarding `CCN(CC)CCNC(=O)c1cnc2cc(NC(=O)COc3ccc(SSCCOC(=O)O[C@H]4C[C@H](n5cc([125I])c(=O)[nH]c5=O)O[C@@H]4CO)cc3)ccc2n1`, the Drug uptake entry in data set [1] is given as “Active”; in data set [2] it was 2.23 % ID/g; in [3], 0.13 % ID/g; in data set [4], 0.11 % ID/g; in data set [5], 1.99 % ID/g; in data set [6], 27.07 % ID/g. In addition, the Drug uptake turned out to be 0.23 % ID/g in [7]; 2.88 % ID/g in [8]; 0.4 % ID/g in [9]; 11.05 % ID/g in data set [10]; 26.6 % ID/g in data set [11]; 19.5 % ID/g in data set [12]. The Drug uptake in data set [13] is recorded as 0.08 % ID/g; in data set [14] it was 2.14 % ID/g; in [15], 2.57 % ID/g; in data set [16], 0.47 % ID/g; in data set [17] it was 0.04 % ID/g; in [18], 0.06 % ID/g. The Kp – broadly, tissue or fluid exposure divided by exposure in the circulation – at 1 h in data set [19] was 1.11. The values for the Ratio in data set [20], in data set [21] and in data set [22] were 2.08, 4.84 and 5.28, respectively.
`O=c1[nH]c(=O)n([C@H]2C[C@H](O)[C@@H](CO)O2)cc1[125I]`: the Drug uptake result in [1] was “Active”; in [2], 2.79 % ID/g; in data set [3], 0.08 % ID/g; in [4], 0.04 % ID/g; in data set [5] it was 2.57 % ID/g; in [6] it was 12.33 % ID/g. Further, the Drug uptake was found to be 0.2 % ID/g in [7]; 1.27 % ID/g in data set [8]; 0.34 % ID/g in data set [9]; 13.63 % ID/g in data set [10]; 14.26 % ID/g in data set [11]; 22.45 % ID/g in data set [12]. The Drug uptake in data set [13] is 0.03 % ID/g; in [14], 3.17 % ID/g; in [15], 1.49 % ID/g; in data set [16], 1.13 % ID/g; in data set [17], 0.02 % ID/g; in data set [18], 0.03 % ID/g. Besides, the partition ratio (Kp) at 1 h in [19] was 0.89. Further, the Ratio turned out to be 2.58 in data set [20], 2.96 in [21] and 14.58 in data set [22]. Besides, the Drug metabolism result in data set [23], in data set [24] and in data set [25] was “Metabolite_Detected” each time.
